Results on two compounds are retold here after patent publication US11453642B2, “Oxygenated amino- or ammonium-containing sulfonic acid, phosphonic acid and carboxylic acid derivatives and their medical use” (GRI BIO, INC., priority 2011, dated 2022).

The structures appear in SMILES notation.

The test system of series [1] is Akt phosphorylation on Ser473. Briefly: Inhibition of activation of Akt kinase (phospho-Akt Ser473 assay in RBL-2H3 cells). In kind it is cell-based, Rat. The conditions noted are these: IgE and antigen 15 min, normalized to total Akt. The text has this: The mast cell degranulation assay using the RBL-2H3 cell line (see example 6) was also used to determine the status of the PI3K/Akt axis. Activation of PI3K leads to production of PIP3 on the cytosolic side of the lipid bilayer. Akt is recruited to the PIP3 domain and subsequently activated by phosphorylation on residues Ser473 and Thr308. (Franke et al., Cell 81:727-736, (1995)). Once recruited to the membrane, it is phosphorylated and activated by other kinases (Hemmings, Science 275:628-630 (1997); Hemmings, Science 276:534 (1997); Downward. Science 279:673-674 (1998); Alessi et al., EMBO J. 15:6541-6551 (1996)). Western blotting of the phosphorylated Ser473 residue on Akt (phospho-Akt Ser473) is widely used to assess the level of activation of the PI3K/Akt axis.
All buffers and solutions used for the phosphor-Akt Ser473 assay were from Meso Scale Discovery. Tris Lysis Buffer consisted of 150 mM NaCl, 20 mM Tris, pH 7.5, 1 mM EDTA, 1 mM EGTA and 1% Triton-X-100. Complete Tris Lysis Buffer was prepared prior to use by addition of protease inhibitor, phosphatase inhibitors and PMSF. The 10× Tris Wash Buffer consisted of 500 mM Tris, pH 7.5, 1.5 M NaCl and 0.2% Tween-20. Blocker A was made up of bovine serum albumin in Tris Wash Buffer, Read Buffer T was used according to manufacturer's instructions. The Whole Cell Lysate Kits used were phospho-Akt Ser473 (K111000, Lot K0011749) and total ERK1/2 (K11107D, Lot K0011698) as a loading control.
Protein assay: protein concentration was determined using the BCA (bicinchoninic acid) Protein Assay kit according to the manufacturer's instructions. Briefly, duplicate 10 μl samples of bovine serum albumin (BSA) standards, blank and lysates were incubated in a 96-well plate with 0.2 ml working reagent for 30 min at 37° C. Plates were cooled to room temperature for 5 min and absorbance at 562 nm was measured in a multi-mode plate reader. Protein concentrations were calculated using FlexStation 3 software (SoftMax Pro version 5.3), Protein concentration of lysates was determined from a standard curve (BSA) using a linear curve fit.
Phosphoprotein assay: protein phosphorylation was determined using the MULTI-SPOT® Assay System (Meso Scale Discovery), providing simultaneous detection of phosphorylated and total proteins. Briefly, capture antibodies against phosphorylated and total protein are patterned on distinct spots in the same well of 96-well plates. Sandwich immunoassay and electrochemiluminescence detection technology are combined to measure intensity of the emitted light from phosphorylated and total protein spots. Analysis of phosphor-Akt Ser473 was performed according to the manufacturer's instructions. The optimal amount of protein was determined at 5 μg lysate per well for ERK1/2 and 10 μg/well for phospho-Akt Ser473, Plates were blocked with 25 μl/well Blocker A for 1 h at room temperature with gentle agitation. During this time, the lysates were thawed and diluted to the desired protein concentration in complete Tris Lysis Buffer. Plates were washed four times in Tris Wash Buffer and 25 μl lysate per well added. Plates were incubated for 1-3 h at room temperature with agitation according to the manufacturer's recommendations. Plates were washed four times with Tris Wash Buffer, followed by addition of 25 μl/well of the respective detection antibody and incubation for 1 h at room temperature, with agitation. After a final four washes with Tris Wash Buffer 150 μl/well, Read Buffer T was added and plates read on a SECTOR Imager 6000 plate reader.
The mean background signal from each plate was subtracted from averaged raw data. The amount of total protein phosphorylated was expressed as % phosphoprotein according to the manufacturer's (Meso Scale Discovery) instructions.
Levels of phospho-Akt Ser473 were determined in IgE sensitized and antigen stimulated cells after treatment without (positive control) or with 1, 5 and 25 μM test compound and normalized to levels of total Akt.

Series [2] relates to local lymph node reaction. Briefly: Local lymph node weight and cell count after TDI challenge. In kind it is in vivo, mice. The conditions noted are these: topical 1a 2% or 6%, diflorasone 0.1% and 0.5%. As to the method: Directly after sacrifice, the ear draining lymph node (Ln. auricularis) was prepared and excised. Organ weight was determined by means of an analytical balance (Kern, Balingen, Germany). Single cell suspensions were prepared by means of a glass potter (VWR, Darmstadt, Germany) and cells were counted with a hemocytometer (Neubauer, VWR, Germany).
One of the most undesirable side-effects of corticosteroid administration is immunosuppression, which leads to the inability to effectively address parasitic infection, wound healing and tumor growth. In the current study, the local lymph node reaction after TDI challenge (lymph node weight and cell number) was determined to assess the response of immune organs.

On to `CCCCCCCCCCCCN(C)CC(O)CS(=O)(=O)O` (stereo not shown) [Compound 1c, 2-hydroxy-3-(N-methyldodecylammonio)propanesulfonate], for which the figures for the “Level of phospho-Akt Ser473” value in series [1] (1 μM), in series [1] (5 μM) and in series [1] (25 μM) were 119.7 ± 35.7 % positive control, 67.9 ± 17.3 % positive control and 17.4 ± 6.4 % positive control, respectively.

Consider `CCCCCCCCCCCCCCCCN(C)CC(O)CS(=O)(=O)O` (stereo not shown) [Compound 1a, 2-hydroxy-3-(N-methylhexadecylammonio)propane-sulfonate], for which the “local lymph node reaction (lymph node weight and cell number)” value in series [2] was “did not have any impact”. Moreover, the “Level of phospho-Akt Ser473” value in series [1] (1 μM) came to 80.8 ± 17.9 % positive control; in series [1] (5 μM) it was 62.4 ± 16.1 % positive control; in series [1] (25 μM), 9.7 ± 4.9 % positive control.
